The source of these data is ChEMBL document CHEMBL1148544, “Discovery, SAR, and X-ray structure of novel biaryl-based dipeptidyl peptidase IV inhibitors” (Bioorg Med Chem Lett, 2006).

SMILES strings stand for the structures. pKi: −log10 of the molar value.

By pKi is commonly meant −log10 of the Ki, conventionally taken in molar units. Lower therefore signals a large Ki. One may read the Papp B→A as the apparent permeability from the basolateral to the apical side of a cell layer. For orientation: Papp A→B means the apparent permeability from the apical to the basolateral side of a cell layer. A low value points to slow passage.

One data set deals with Dipeptidyl peptidase 4 (Homo sapiens, UniProt P27487).
Sequence of Dipeptidyl peptidase 4 (P27487 whole entry): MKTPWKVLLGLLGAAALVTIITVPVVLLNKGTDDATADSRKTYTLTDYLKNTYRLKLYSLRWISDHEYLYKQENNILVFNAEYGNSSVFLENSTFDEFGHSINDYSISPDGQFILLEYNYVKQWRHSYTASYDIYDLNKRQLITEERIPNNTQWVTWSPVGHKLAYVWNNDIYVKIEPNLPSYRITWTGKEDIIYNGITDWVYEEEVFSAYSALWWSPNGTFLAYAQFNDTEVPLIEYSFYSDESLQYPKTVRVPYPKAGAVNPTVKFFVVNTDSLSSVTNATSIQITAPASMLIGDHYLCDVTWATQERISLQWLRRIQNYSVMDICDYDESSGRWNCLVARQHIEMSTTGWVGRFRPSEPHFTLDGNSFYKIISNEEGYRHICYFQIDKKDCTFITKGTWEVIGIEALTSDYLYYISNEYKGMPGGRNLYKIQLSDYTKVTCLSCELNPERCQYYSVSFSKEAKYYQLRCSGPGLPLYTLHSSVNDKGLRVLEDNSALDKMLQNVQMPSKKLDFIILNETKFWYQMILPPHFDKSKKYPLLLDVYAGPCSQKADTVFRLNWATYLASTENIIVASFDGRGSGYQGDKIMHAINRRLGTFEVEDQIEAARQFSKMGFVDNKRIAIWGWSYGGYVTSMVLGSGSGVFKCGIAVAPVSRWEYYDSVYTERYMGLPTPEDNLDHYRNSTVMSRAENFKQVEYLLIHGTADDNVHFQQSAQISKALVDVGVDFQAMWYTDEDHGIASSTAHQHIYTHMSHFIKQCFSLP
Data set [1] can be described thus: Permeability from basolateral to apical side of the Caco-2 cell membrane at 10 uM. The data set is classed as ADME, cell-based. Conditions: human. In general terms: Caco-2 cells form a polarised layer with tight junctions and transporters.
Data set [2] is described as follows: Stability in human liver microsomes at 1 uM. The data set is classed as ADME, Microsome. The settings on record: read-out: Stability.
Data set [3] can be described thus: Permeability from apical to basolateral side of the Caco-2 cell membrane at 10 uM. Format: ADME, cell-based. Conditions: human.

Turning to `N[C@@H](Cc1c[nH]c2ccccc12)C(=O)N1CCSC1`, at Dipeptidyl peptidase 4, the negative logarithm of the Ki (pKi) was < 4.89.
On the same count and under the same terms, with `N[C@@H](Cc1cccc2ccccc12)C(=O)N1CCSC1` the figure was < 4.89.
On to `N[C@@H](Cc1ccc(-c2ccccc2)cc1)C(=O)N1CCSC1`, for which the Papp B→A at 10 µM in data set [1] amounted to 1.5 ×10⁻⁶ cm/s. Also, the remaining at 1 µM in data set [2] amounted to 62%. This compound also had a Papp A→B at 10 µM in data set [3] of 4.56 ×10⁻⁶ cm/s.
The matching figures for `N#C[C@@H]1CCCN1C(=O)[C@@H](N)Cc1ccc(-c2ccc(F)cc2)cc1`: 4.45 ×10⁻⁶ cm/s, 6.7% and 7.21 ×10⁻⁶ cm/s.
The matching figures for `N#C[C@@H]1CCCN1C(=O)[C@@H](N)Cc1ccc(-c2ccc(F)cc2F)cc1`: 4.93 ×10⁻⁶ cm/s, 73.9% and 4.93 ×10⁻⁶ cm/s.
`N#C[C@@H]1CCCN1C(=O)[C@@H](N)Cc1ccc(-c2ccccc2)cc1`: the Papp B→A at 10 µM in data set [1] came to 3.82 ×10⁻⁶ cm/s. In data set [2], the remaining at 1 µM amounted to 52.3%. For the same compound, in data set [3], the Papp A→B at 10 µM turned out to be 2.66 ×10⁻⁶ cm/s.
`N[C@@H](Cc1ccc(-c2ccccc2)cc1)C(=O)N1CCC[C@H]1CO`: the pKi on Dipeptidyl peptidase 4 is < 4.89.
In data set [1], `N[C@@H](Cc1ccc(-c2ccc(F)cc2)cc1)C(=O)N1CCSC1` gave a Papp B→A at 10 µM of 5.61 ×10⁻⁶ cm/s. For the same compound, the remaining at 1 µM in data set [2] was found to be 78.5%. For the same compound, the Papp A→B at 10 µM in data set [3] turned out to be 16.8 ×10⁻⁶ cm/s.
Regarding `CC1(C)OCCN1C(=O)[C@@H](N)Cc1ccc(-c2ccccc2)cc1`, on Dipeptidyl peptidase 4, the pKi was < 4.89.
The same measure, in the same setting: with `N[C@@H](Cc1ccc(-c2ccccc2)cc1)C(=O)N1CCC[C@H]1COCc1ccccc1` the figure was < 4.89.
